Data set [1] concerns C. parapsilosis ATCC 90018. The conditions noted are these: ATCC 90018, 24 h.
The test system of data set [2] is S. epidermidis ATCC 14990. Nature of the data set: MIC, microdilution assay. It is filed as cell-based. The conditions noted are these: S. epidermidis ATCC 14990, reference strain. As to the method: (§1) Minimum Inhibitory Concentration (MIC) was determined by a standard microdilution assay as recommended by the National Committee for Clinical Laboratory Standards (NCCLS) using cation-supplemented Mueller-Hinton (MH) broth (Oxoid Ltd. Basingstoke, UK) and a bacterial inoculum of 5×10^4 CFU per well, in a final volume of 100 μl. Results were recorded by visual inspection after 24 h of incubation at 37° C.
For orientation: Dilution methods test growth across graded concentrations, often in twofold steps.

A further data set relates to S. capitis ATCC 27840. Nature of the data set: MIC, microdilution assay. It counts as cell-based. The conditions noted are these: S. capitis ATCC 27840, reference strain. As to the method:
as §1

In another data set the test system is C. glabrata ATCC 90030. The conditions noted are these: ATCC 90030, 24 h.
A further data set has as its system C. albicans 9833. The note with it: 9833, 24 h.
Data set [3] concerns P. aeruginosa VenM rugosa 05/04/2005. It is filed as cell-based. The conditions noted are these: VenM rugosa 05/04/2005, 24 h. As to the method: (§2) Peptide MICs were determined against strains of several bacterial species, including Gram-negative and Gram-positive pathogens (Table 1 and 2). Activity of tetra-branched D-M33 was retained against MDR strains with various resistance mechanisms (such as extended-spectrum beta-lactamases and carbapenemases), including MDR P. aeruginosa strains from CF patients. The antimicrobial activity of tetra-branched D-M33 appeared slightly better with respect to tetra-branched L-M33 for MDR strains of Pseudomonas and one strain of Klebsiella and sensitively better respect to tetra-branched L-M33 for the two strains of Staphyloccoccus aureus reported in Table 1.

A further data set concerns P. aeruginosa PAO-1. It is filed as cell-based. The conditions noted are these: PAO-1, 24 h. As to the method: as §2
Data set [4] has as its system Acinotebacter baumannii RUH 134. It is filed as cell-based. The conditions noted are these: 24 h. As to the method: as §2
Data set [5] relates to Acinotebacter baumannii RUH 875. It is filed as cell-based. The note with it: 24 h. As to the method:
as §2

In data set [6] the test system is Klebsiella pneumoniae ATCC 13833. It counts as cell-based. The conditions noted are these: ATCC 13833, 24 h. As to the method:
as §2

The test system of a further data set is E. coli ATCC 25922. It is filed as cell-based. The conditions noted are these: ATCC 25922, 24 h. As to the method:
as §2

Another data set concerns C. krusei ATCC 6268. The note with it: ATCC 6268, 24 h.
In the next data set the test system is C. tropicalis 6597. The note with it: 6597, 24 h.
Another data set relates to E. coli TG1. Nature of the data set: In vivo antibacterial activity, lethal E. coli infection in mice. The note with it: Balb-c mice, LD100 E. coli ip; single dose 10 mg/Kg ip 1 hour later. As to the method: In vivo antibacterial activity of tetra-branched D-M33 peptide. Balb-c mice (20 g) were intra-peritoneally injected with a lethal amount of E. coli TG1 cells (1×10^9 CFU). Continuous line (Ctr) indicates mice only injected ip with bacteria and no D-M33. Broken line indicates mice injected ip with bacteria and a single injection of D-M33 peptide 10 mg/Kg 1 hour later.
(§3) Tetra-branched D-M33 peptide was analysed for its antibacterial activity in mice infected with lethal amounts of the Gram-negative bacterium E. coli or the Gram-positive bacterium S. aureus.
(§4) Balb-c mice were infected with the LD100 of bacteria and treated 1 hour later with the peptide by ip administration.

The subject of the next data set is human erythrocytes. Nature of the data set: Haemolysis of human erythrocytes (method of Parpart). It is filed as cell-based. The note with it: for haemolytic activity (percentage of haemolysis): red cells of human. As to the method: Effect of tetra-branched L-M33, D-M33 and monomeric Indolicidin on haemolysis of human erythrocytes. The figures show the haemolytic activity of the three peptides on human erythrocytes evaluated by means of erythrocyte osmotic resistance of Parpart method in NaCl. The percentage of haemolysis is calculated by means of a calibration curve obtained by incubating erythrocytes with increasing concentrations of NaCl. […] The percentage of haemolysis of untreated blood after 19 hours (control) is very limited (<1%).
Haemolysis of fresh human erythrocytes was determined using the method of Parpart, summarized as follows. A calibration curve was constructed by suspending fresh human erythrocytes in phosphate buffer (pH 7.4, 110 mM sodium phosphate) with various concentrations of NaCl and incubated for 30 min at room temperature. Samples were centrifuged at 500×g for 5 minutes, and haemoglobin release was monitored by measuring the absorbance of supernatants at 540 nm. The absorbance obtained with 0.1% NaCl corresponded to 100% lysis and that with 1% NaCl, to 0% lysis. Peptides dissolved in PBS were added to human erythrocyte solution at several concentrations. The resulting suspension was incubated separately at 37° C. for 2 h and 24 h. Release of hemoglobin was monitored by measuring the absorbance of the suspernatant at 540 nm after centrifuging and haemolysis percentage was calculated using the calibration curve.

The conditions of data set [7]: animals treated ip, peptide dose 100 mg/Kg.
The subject of another data set is S. aureus USA 300. Nature of the data set: In vivo antibacterial activity, lethal S. aureus infection in mice. The conditions noted are these: Balb-c mice, LD100 S. aureus ip; single dose 25 mg/Kg ip 1 hour later. As to the method:
In vivo antibacterial activity of tetra-branched D-M33 peptide. Balb-c mice (20 g) were intra-peritoneally injected with a lethal amount of S. aureus USA 300 cells (5×10^6 CFU) mixed in a 7% mucin solution. Control line (Ctr) indicates mice only injected ip with bacteria and no D-M33. D-M33 line indicates mice injected ip with bacteria and a single injection of D-M33 peptide 25 mg/Kg 1 hour later. P<0.05.
as §3, §4

In the next data set the test system is E. faecalis FI74B4 VSE. The conditions noted are these: 24 h. As to the method: as §1
The next data set concerns S. pneumoniae ATCC 49619. The note with it: ATCC 49619, 24 h. As to the method: as §1
The test system of the next data set is S. aureus ATCC 29213. The note with it: ATCC 29213, 24 h. As to the method: as §1
Data set [8] has as its system Staphylococcus aureus 3851. The conditions noted are these: 3851, 24 h. As to the method: as §1
In the next data set the test system is S. epidermidis 4761/1. The conditions noted are these: 4761/1, 24 h. As to the method:
as §1

For another data set, the system named is E. faecium FI81B2 VSE. The note with it: 24 h. As to the method:
as §1

The subject of a further data set is S. pneumoniae 47D22. The note with it: 47D22, 24 h. As to the method: as §1
Another data set concerns S. epidermidis 6154. The conditions noted are these: 6154, 24 h. As to the method: as §1
The next data set deals with E. faecalis ATCC 29212. The conditions noted are these: ATCC 29212, 24 h. As to the method:
as §1

The next data set deals with E. faecium FI81B1 VRE. The note with it: 24 h. As to the method: as §1
The next data set concerns S. pneumoniae 47C12. The conditions noted are these: 47C12, 24 h. As to the method:
as §1

The subject of a further data set is S. agalactiae ATCC 13813. The conditions noted are these: ATCC 13813, 24 h. As to the method:
as §1

For the next data set, the target named is Aureolysin (Staphylococcus aureus, UniProt P81177). It counts as in vitro ADME. The conditions noted are these: incubation with S. aureus Aureolysin, 1 hour / 24 hours. As to the method:
HPLC profiles of tetra-branched peptides L-M33 (A) and D-M33 (B) after incubation with the protease Aureolysin derived from S. aureus.

Values after ≈ are worked out from the molar mass of the structure shown. Like-named read-outs stand apart in the source and are kept apart here.

Aureolysin, sequence (P81177 209-509): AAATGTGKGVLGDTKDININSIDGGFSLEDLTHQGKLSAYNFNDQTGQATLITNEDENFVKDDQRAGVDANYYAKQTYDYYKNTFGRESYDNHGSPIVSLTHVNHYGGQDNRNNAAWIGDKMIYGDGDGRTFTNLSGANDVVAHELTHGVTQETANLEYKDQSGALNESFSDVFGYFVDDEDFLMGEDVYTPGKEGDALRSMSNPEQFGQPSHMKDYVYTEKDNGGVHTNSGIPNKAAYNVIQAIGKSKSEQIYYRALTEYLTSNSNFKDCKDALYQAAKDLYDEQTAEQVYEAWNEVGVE

For `CC[C@@H](C)[C@@H](NC(=O)[C@@H](CCCCN)NC(=O)[C@H](N)CCCCN)C(=O)N[C@H](CCCNC(=N)N)C(=O)N[C@@H](C(=O)N[C@H](CCCNC(=N)N)C(=O)N[C@H](CC(C)C)C(=O)N[C@H](CO)C(=O)N[C@H](C)C(=O)NCCCCC(NC(=O)[C@@H](C)NC(=O)[C@@H](CO)NC(=O)[C@@H](CC(C)C)NC(=O)[C@@H](CCCNC(=N)N)NC(=O)[C@H](NC(=O)[C@@H](CCCNC(=N)N)NC(=O)[C@H](NC(=O)[C@@H](CCCCN)NC(=O)[C@H](N)CCCCN)[C@H](C)CC)C(C)C)C(=O)NCCCCC(NC(=O)C(CCCCNC(=O)[C@@H](C)NC(=O)[C@@H](CO)NC(=O)[C@@H](CC(C)C)NC(=O)[C@@H](CCCNC(=N)N)NC(=O)[C@H](NC(=O)[C@@H](CCCNC(=N)N)NC(=O)[C@H](NC(=O)[C@@H](CCCCN)NC(=O)[C@H](N)CCCCN)[C@H](C)CC)C(C)C)NC(=O)[C@@H](C)NC(=O)[C@@H](CO)NC(=O)[C@@H](CC(C)C)NC(=O)[C@@H](CCCNC(=N)N)NC(=O)[C@H](NC(=O)[C@@H](CCCNC(=N)N)NC(=O)[C@H](NC(=O)[C@@H](CCCCN)NC(=O)[C@H](N)CCCCN)[C@H](C)CC)C(C)C)C(=O)NCCC(=O)O)C(C)C` (stereo partly drawn) [D-M33, KKIRVRLSA], the MIC (as a rule, the lowest concentration found to suppress growth) in [1] came to 1.5 µM (≈ 7.02 µg/mL); in data set [2], 0.35 µM (≈ 1.64 µg/mL); in the data set on S. capitis ATCC 27840, 0.35 µM (≈ 1.64 µg/mL); in the data set on C. glabrata ATCC 90030, 12 µM (≈ 56.2 µg/mL); with C. albicans 9833 it was 24 µM (≈ 112 µg/mL); in [3] it was 0.7 µM (≈ 3.28 µg/mL). The MIC was 0.7 µM (≈ 3.28 µg/mL) with P. aeruginosa PAO-1; 3 µM (≈ 14 µg/mL) in data set [4]; 3 µM (≈ 14 µg/mL) in data set [5]; 0.7 µM (≈ 3.28 µg/mL) in data set [6]; 1.5 µM (≈ 7.02 µg/mL) against E. coli ATCC 25922; 6 µM (≈ 28.1 µg/mL) against C. krusei ATCC 6268. Also, the MIC in the data set on C. tropicalis 6597 was 12 µM (≈ 56.2 µg/mL); against E. faecalis FI74B4 VSE, 0.7 µM (≈ 3.28 µg/mL); in the data set on S. pneumoniae ATCC 49619 it was 6 µM (≈ 28.1 µg/mL); in the data set on S. aureus ATCC 29213, 3 µM (≈ 14 µg/mL); in data set [8], 0.7 µM (≈ 3.28 µg/mL); with S. epidermidis 4761/1 it was 0.35 µM (≈ 1.64 µg/mL). Besides, the MIC stood at 0.7 µM (≈ 3.28 µg/mL) with E. faecium FI81B2 VSE; 6 µM (≈ 28.1 µg/mL) against S. pneumoniae 47D22; 0.35 µM (≈ 1.64 µg/mL) with S. epidermidis 6154; 0.7 µM (≈ 3.28 µg/mL) against E. faecalis ATCC 29212; 0.7 µM (≈ 3.28 µg/mL) against E. faecium FI81B1 VRE; 12 µM (≈ 56.2 µg/mL) in the data set with S. pneumoniae 47C12. The same compound came in with an MIC against S. agalactiae ATCC 13813 of 1.5 µM (≈ 7.02 µg/mL). Besides, the “animals protected from signs of sepsis and death (seven-day survival)” value in the data set on E. coli TG1 and in the data set on S. aureus USA 300 was 100% throughout. The “haemolysis, result in words” value in the data set on human erythrocytes is recorded as “negligible haemolysis grade”. Moreover, the “haemolytic activity (percentage of haemolysis)” value in the data set on human erythrocytes is listed as < 5%. Further, in data set [7], the apparent toxicity signs entry is on record as “did not produce apparent toxicity signs”.

Turning to `CC[C@H](C)[C@H](NC(=O)[C@H](CCCCN)NC(=O)[C@@H](N)CCCCN)C(=O)N[C@@H](CCCNC(=N)N)C(=O)N[C@H](C(=O)N[C@@H](CCCNC(=N)N)C(=O)N[C@@H](CC(C)C)C(=O)N[C@@H](CO)C(=O)N[C@@H](C)C(=O)NCCCC[C@H](NC(=O)[C@H](C)NC(=O)[C@H](CO)NC(=O)[C@H](CC(C)C)NC(=O)[C@H](CCCNC(=N)N)NC(=O)[C@@H](NC(=O)[C@H](CCCNC(=N)N)NC(=O)[C@@H](NC(=O)[C@H](CCCCN)NC(=O)[C@@H](N)CCCCN)[C@@H](C)CC)C(C)C)C(=O)NCCCC[C@H](NC(=O)[C@H](CCCCNC(=O)[C@H](C)NC(=O)[C@H](CO)NC(=O)[C@H](CC(C)C)NC(=O)[C@H](CCCNC(=N)N)NC(=O)[C@@H](NC(=O)[C@H](CCCNC(=N)N)NC(=O)[C@@H](NC(=O)[C@H](CCCCN)NC(=O)[C@@H](N)CCCCN)[C@@H](C)CC)C(C)C)NC(=O)[C@H](C)NC(=O)[C@H](CO)NC(=O)[C@H](CC(C)C)NC(=O)[C@H](CCCNC(=N)N)NC(=O)[C@@H](NC(=O)[C@H](CCCNC(=N)N)NC(=O)[C@@H](NC(=O)[C@H](CCCCN)NC(=O)[C@@H](N)CCCCN)[C@@H](C)CC)C(C)C)C(=O)NCCC(=O)O)C(C)C` [L-M33, KKIRVIRLSA, reference compound], at Aureolysin, the “degradation by protease Aureolysin (HPLC profile)” value is “degraded after only 1 hour of incubation”. Besides, the MIC stood at 3 µM (≈ 14 µg/mL) in data set [3]; 1.5 µM (≈ 7.02 µg/mL) with P. aeruginosa PAO-1; 1.5 µM (≈ 7.02 µg/mL) in [4]; 1.5 µM (≈ 7.02 µg/mL) in [5]; 1.5 µM (≈ 7.02 µg/mL) in [6]; 1.5 µM (≈ 7.02 µg/mL) with E. coli ATCC 25922. Also, the MIC in data set [8] was found to be 6 µM (≈ 28.1 µg/mL). For the same compound, in the data set on human erythrocytes, the “haemolytic activity (percentage of haemolysis)” value is recorded as < 5%.

For the compound Indolicidin [reference compound], the “haemolysis, result in words” value in the data set on human erythrocytes (human erythrocytes (FIG. 2)) is on record as “more haemolytic”.

(Values after US8921308B2, “Antimicrobial peptide, branched forms thereof and their use in the treatment of bacteria infections” (priority 2010, dated 2014).)
